Laboratory results as given in publication PMC7037393, “Synthesis, Structural, and Cytotoxic Properties of New Water-Soluble Copper(II) Complexes Based on 2,9-Dimethyl-1,10-Phenanthroline and Their One Derivative Containing 1,3,5-Triaza-7-Phosphaadamantane-7-Oxide” (Molecules, 2020).
Like-named read-outs stand apart in the source and are kept apart here.

What was measured:
A549 or HeLa lines = conditions: cited from earlier work
apo-Tf = conditions: cited from earlier work
[1] = system: LoVo (human colorectal adenocarcinoma); assay: Cytotoxicity on LoVo cells, quantitative suspension test according to EN 14476; assay type: cell-based; conditions: observed 4 days, aqua media
Method: (§1) Normal human dermal fibroblasts (NHDF) (PromoCell, C-12302) were used as normal cells and LoVo (human colorectal adenocarcinoma, ATCC® CCL-229™), A549 (human lung carcinoma, ATCC, No. CCL-185 TM), MCF-7 (human breast adenocarcinoma, ATCC, No. HTB-22^TM) and HeLa (human cervix carcinoma, ATCC, No. CCL-2 TM) were used as cancer cells. They were cultured in DMEM, DMEM–F12 or EMEM (Lonza, CA, USA). Media were supplemented with 10% FBS (Biological Industries, Kibbutz Beit-Haemek, Israel), 2 mM L-glutamine (Biological Industries, Israel), 100 U/mL of penicillin and 100 µg/mL of streptomycin (Sigma, Neustadt an der Weinstrasse, Germany).
(§2) The 100 μL of suspension of NHDF, A549, HeLa, LoVo, and MCF7 cells at a density of 4 × 10^4 cells mL^−1 were incubated in a 96-well polystyrene plate (NUNC, Denmark) for 24 h. Product test solutions were prepared in DMEM, DMEM–F12, or EMEM supplemented with additional 2% FBS and 2 mM L-glutamine. Solutions of the reagents at concentrations from 460 (for 1), 454 (2), […] (3), 1242 (Cu(NO3)2), 1732 (PTA=O), and 1440 µM (dmphen) to 4.60 × 10^−6, 4.54 × 10^−6, 4.69 × 10^−6, 1.24 × 10^−5, 1.73 × 10^−5, and 1.44 × 10^−5 µM, respectively, were prepared and transferred (100 μL) into cell culture units (wells of microtiter plates) containing monolayer of cells. Eight units were inoculated with each dilution. Plates were incubated in 37 °C, 5% CO2 and observed daily for 4 days for the development of cytotoxic effect, using an inverted microscope (Olympus Corp., Hamburg, Germany, Axio Observer, Carl Zeiss MicroImaging GmbH). Then the wells were washed in phosphate buffered saline (PBS) and stained using DAPI (4′,6-diamidino-2-phenylindole) and propidium iodide (Merck, Darmstadt, Germany). The study used the fact that DAPI is able to be combined with cellular DNA, permeate through the membrane of cell, rapidly enter the nucleus of living cells and bind with DNA to form a DAPI-DNA complex. […] In cell culture these are cells that are apoptotic or damaged by any physical or chemical agent. Therefore, if these two fluorochrome are given at the same time, DAPI will get to healthy cells faster, while propidium iodide will stain dead or dying cells. The calculation of the ratio of cells counted on a specific area, allows to determine the potency of a substance in inhibiting a specific biological function (IC50).

[2] = system: HeLa (human cervix carcinoma); assay: Cytotoxicity on HeLa cells, quantitative suspension test according to EN 14476; assay type: cell-based; conditions: observed 4 days, aqua media
Method: as §1, §2

NHDF cells [3] = assay: Cytotoxicity on normal human dermal fibroblasts, quantitative suspension test according to EN 14476 (DAPI/propidium iodide); assay type: cell-based; conditions: observed 4 days, aqua media
Method: as §1, §2

[4] = system: MCF7 (human breast adenocarcinoma); assay: Cytotoxicity on MCF7 cells, quantitative suspension test according to EN 14476; assay type: cell-based; conditions: observed 4 days, aqua media
Method: as §1, §2

[5] = system: A549 (human lung carcinoma); assay: Cytotoxicity on A549 cells, quantitative suspension test according to EN 14476; assay type: cell-based; conditions: observed 4 days, aqua media
Method: as §1, §2

[6] = system: normal cell lines like MRC5, HEK293T, or HaCat; conditions: cited from earlier work
A549 cell line = conditions: read-out: IC50 value for A549 cell line; cited from earlier work
[7] = system: HeLa (human cervix carcinoma); design: method as in PMID 31237306; conditions: cited from earlier work
[8] = system: MCF7 (human breast adenocarcinoma); design: method as in PMID 31237306; conditions: cited from earlier work
[9] = system: A549 (human lung carcinoma); design: method as in PMID 31237306; conditions: cited from earlier work
NHDF cells [10] = system: NHDF cells; design: method as in PMID 31237306; conditions: cited from earlier work
[11] = system: LoVo (human colorectal adenocarcinoma); design: method as in earlier work; conditions: cited from earlier work
[12] = read-out: IC50 value, cytotoxic effect on A549 or HeLa lines, A549 or HeLa

For [Cu(sal-5-met-L-glu)(H2O)]∙H2O, the IC50 (A549 or HeLa lines; [12]) is given as > 100 µM.

For “[Cu2(sal-D,L-glu)2(isoquinoline)2]∙2EtOH”, the IC50 (A549 or HeLa lines; [12]) is given as > 100 µM.

In the case of [Cu(EtOH)2(imidazole)4], the IC50 (A549 or HeLa lines) is listed as > 100 µM.

In the case of [Cu2(sal-D,L-glu)2(imidazole)2], the IC50 (A549 or HeLa lines) is given as > 100 µM.

In the case of [Cr+3].c1cnc2c(c1)ccc1cccnc12.c1cnc2c(c1)ccc1cccnc12.c1cnc2c(c1)ccc1cccnc12 [chromium(III)-phen], the “association constant, apo-Tf system” value (apo-Tf) is given as 150000 M⁻¹.

With O=[N+]([O-])[O-].O=[N+]([O-])[O-].[Cu+2] [Cu(NO3)2, reference compound] the IC50 [1] was 38.8 ± 5.8 µM, the IC50 [2] was 19.1 ± 2.9 µM and the IC50 (NHDF cells [3]) was 310 ± 47 µM. For the same compound, the IC50 [4] was 155 ± 23 µM and the IC50 [5] was 155 ± 23 µM.

In the case of COc1ccc(P(CO)c2ccc(OC)cc2)cc1.Cc1ccc2ccc3ccc(C)nc3c2n1.[Cu+].[I-] [[Cu(iodide)(dmphen)(P(p-OCH3-Ph)2CH2OH)]], the “concentration toxic for normal cell lines” value [6] is listed as 32 to 43 µM and the IC50 (A549 cell line) is listed as 62 µM.

For Cc1ccc2ccc3ccc(C)nc3c2n1 [Dmphen, 2,9-dimethyl-1,10-phenanthroline], the IC50 ([1]; Homo sapiens, 96 h) was 360 ± 54 µM and the IC50 ([2]; Homo sapiens, 96 h) was 720 ± 108 µM.

In the case of N.N.[Cl][Pt][Cl] [Cisplatin], the IC50 [7] is listed as 16.6 ± 3.1 µM, the IC50 [8] is listed as 33.3 ± 4.2 µM and the IC50 [9] is listed as 33.3 ± 4.2 µM. For the same compound, the IC50 (NHDF cells [10]) was 16.6 ± 2.1 µM and the IC50 [11] was 9.12 ± 0.005 µM.

In the case of CS(C)=O.[Cl-].[Cl-].[Cl-].[Cl-].[Ru+3].c1c[nH+]c[nH]1.c1c[nH]cn1 [NAMI-A, Imidazolium-trans-tetrachloro(dimethylsulfoxide)imidazoleruthenium(III)], the “association constant with apo-Tf” value (apo-Tf) is listed as 12800 M⁻¹.

For “[Cu(iodide)(dmphen)(P(p-OCH3-Ph)2CH2-SarGly)]”, the IC50 (A549 cell line) is given as > 100 µM.
